“Also recorded” adds a separate entry of the source.
Columns and labels:
Swiss Webster male mice [1] = test: Repeated open space forced swim (RFS) test; settings: for immobility or distance swum versus vehicle, panel of currently available antidepressants: single acute i.p. dose 15 min prior, FIG. 14
brain α-adrenoceptors = settings: cited from earlier work
Swiss Webster male mice [2] = test: Open field motor activity and anxiety (i.p. dp6FNE/prazosin); format: in vivo, mouse; settings: 1 h; dp6FNE 0.1-3 mg/kg/prazosin; amphetamine 2 mg/kg i.p.
Protocol: For purposes of comparison, some animals received instead d-amphetamine, 2 mg/kg, i.p. Total quadrants entered and time in the center area of the field as a ratio to the total distance traveled were rated from videorecordings.

rats = settings: cited from earlier work; for antidepressant effect after intracerebral administration: intracerebral infusion/injection
Swiss Webster male mice [3] = test: Tail suspension test; format: in vivo, mouse; settings: DMI subacute i.p. 10 mg/kg; for immobility, % vehicle control: 6FNE ivt. 3 nmoles; for immobility versus vehicle: acute ivt. 6FNE or DEX
Swiss Webster male mice [4] = test: Acute forced swim test (Porsolt); format: in vivo, mouse; settings: for immobility versus vehicle: second swim, 6FNE ivt. peak dose 3 nmoles, DMI subacute i.p. 10 mg/kg
Swiss Webster male mice [5] = test: LPS model of depression (anhedonia); format: in vivo, mouse
Protocol: 1LPS model of depression (anhedonia): A modification of the Frenois et al (2007) model of LPS-induced anhedonia in the mouse was used to obtain a non-motoric index of depressed behavior. In this model, trained mice show a marked decrease in preference for a sweet solution 24-48 h after a systemic dose of LPS (830 μg/kg, i.p.), a time when they have recovered from the sickness behavior and anorexia caused by the acute effects of the toxin. For the model, the animals were first implanted with 4th ventricular cannulas as above and, during the recovery period, trained to drink diluted sweetened condensed milk solution (Magnolia 1:3 v:v milk:tap water) by 15 min presentations every other day for 7-10 d. […] Animals given i.p. injections were dosed 14, 12 and 0.5 h prior to the last test.

[6] = in vivo; cited from earlier work
LC α1-adrenoceptors [7] = test: Novel cage test after LC microinjection; format: in vivo, rat
LC α1-adrenoceptors [8] = test: Home cage test after LC microinjection; format: in vivo, rat
Protocol: The animal was brought into the laboratory in its home cage and habituated in this cage beneath the video camera for 3 h prior to being injected. […] Food and water remained on the cage during the test. The longer interval (30 min) was used in the home vs. novel cage test because a low baseline activity was desired, and it was necessary to allow time for the disturbance caused by handling the animal to subside. As in the novel cage test, the home cage tests were repeated for a total of 2-3 tests at weekly intervals with different doses of the agonist. All experiments were carried out between 1100 and 1400 h. Following the last behavioral test, the animals were anesthetized with Nembutal and infused bilaterally with 250 nl of 2% methylene blue. Frozen (unfixed) brain sections were stained with cresyl violet for histological localization of cannula placement.
Videotapes were rated blind for gross movements (GMs), crosses of the cage midline (cage Xs), rearing responses, and time immobile (TI) by a trained observer. […] This included walks to a wall, rears, turns in place, and stretch and attend responses.
Animals showing significant dye penetration of the 4th ventricle were excluded from the study. Comparisons between two drug conditions in the novel cage experiment were evaluated by Bonferronicorrected dependent t-tests.

Swiss Webster male mice [9] = test: Observation for sedation and signs of toxicity; format: in vivo, mouse; settings: intracerebral 6FNE or peripheral dp6FNE, range of behavioral tests
Source text: Sedation interferes with behavioral performance and is therefore a detrimental side effect to the treatment of major depressive illness in humans.
Although dp6FNE was designed to be a temporary treatment, it was of interest to determine how long it would remain effective if given repeatedly.

[10] = system: Fos expression in LC, PVH, lateral septal nucleus and NAC; settings: stimulation or blockade of LC α1-receptors (Stone et al. 2011); cited from earlier work
[11] = system: Fos expression in LC, PVH, lateral septal nucleus and NAC; test: Fos immunohistochemistry in stress- and motivation-related brain regions; format: in vivo, mouse; settings: 6FNE 3 nmoles ivt.
Protocol: At 70 min after drug infusion all animals were deeply anesthetized with a combination of isoflurane and urethane (2.2 g/kg, i.p.) and perfused intracardially with 4% paraformaldehyde for subsequent immunohistochemistry and histological examination of the cannula tip with respect to the 4th ventricle.
Immunohistochemistry: Methods used for single and double-label Fos and Fos+tyrosine hydroxylase immunohistochemistry have been described in detail elsewhere (Stone, et al., Brain Research (2009) 1291:21-31). In brief, at 70 min after drug infusion deeply anesthetized (isoflurane plus urethane, 2.2 g/kg) mice were perfused intracardially with saline (25 ml) and 4% paraformaldehyde (45 ml), and the sucrose-treated brains were sectioned at 35 p and stained either singly for Fos (PVH, lateral septal nucleus, shell of nucleus accumbens (NAC)) or doubly for Fos and tyrosine hydroxylase (LC). Rabbit anti-fos (Oncogene Science 1:20,000) and chicken anti-tyrosine hydroxylase (Novus Biologicals, 1:5,000) were primary antibodies. Single-label staining involved nickel intensified-diaminobenzidine localization of the secondary biotinylated antibody and avidin-biotin-peroxidase complex. Double-label staining involved the use of Alexa-488 labeled secondary anti-rabbit and Alexa-594 labeled secondary anti-chicken antibodies. […] In all sections, to preclude biasing in the placement of counting frames, large frames comprising the total two dimensional extent of the target structures were counted for every Fos-positive cell by ImageJ. Double-labeled LC cells were defined as those having a fluorescently labeled cytoplasm (TH) and nucleus (Fos) greater than twice background fluorescence.

Swiss Webster male mice [12] = test: Open field motor activity after ivt. infusion; format: in vivo, mouse; settings: 15 min post infusion; 6FNE 3 nmoles ivt.
Protocol: Open field motor activity: Implanted mice were placed singly in an open field (46×46×33 cm clear Plexiglas) and permitted to explore freely and habituate for 60 min. The animals were then either left undisturbed in the field or removed and infused with either vehicle or 6FNE (3 nmoles) and replaced in the field for a further 15 min. For comparative purposes a further group of implanted animals, similarly habituated to the field, was given an i.p. injection of d-amphetamine (5 mg/kg) prior to the final 15 min exposure. Movement in the field was videorecorded and was subsequently rated blind for the number of quadrants entered as well as the amount of time spent not touching the walls (“time in the center of the field”).

[13] = dpEPI 1 mg/kg i.p. in vehicle with prazosin 0.2 mg/kg + propranolol 0.5 mg/kg, 15 min prior
[14] = 5th swim, 6FNE ivt. peak dose, DMI subacute i.p. 10 mg/kg
[15] = 5th swim, acute ivt. 6FNE or DEX, DMI subacute i.p. 10 mg/kg
[16] = overall effect across depression tests

## CC(NC(C)(C)C)C(=O)c1cccc(Cl)c1 (stereo not drawn) [bupropion]
Swiss Webster male mice [1]
  immobility or distance swum versus vehicle, panel of currently available antidepressants: dp6FNE/prazosin (1 mg/kg) was the only agent that either significantly reduced immobility

## CNCC(O)c1ccc(OC(=O)C(C)(C)C)c(OC(=O)C(C)(C)C)c1 (stereo not drawn) [dpEPI, dipivalyl-epinephrine]
Swiss Webster male mice [1]; [13]
  distance swum versus vehicle: increase in distance swum
  immobility versus vehicle: significant reduction in immobility

## CNC[C@H](O)c1ccc(O)c(O)c1 [EPI, epinephrine]
Brain α-adrenoceptors
  agonist efficacy: full agonist

## CNCCC(Oc1ccc(C(F)(F)F)cc1)c1ccccc1 (stereo not drawn) [fluoxetine]
Swiss Webster male mice [1]
  immobility or distance swum versus vehicle, panel of currently available antidepressants: dp6FNE/prazosin (1 mg/kg) was the only agent that either significantly reduced immobility

## C[C@H](N)Cc1ccccc1 [amphetamine, d-amphetamine]
Swiss Webster male mice [2]
  motor activity (quadrants entered): highly significant increase on locomotion
  relative time in the center of the field: significantly tended to reduce it

## Clc1cccc(Cl)c1N=C1NCCN1 [clonidine]
Swiss Webster male mice [1]
  immobility or distance swum versus vehicle, panel of currently available antidepressants: dp6FNE/prazosin (1 mg/kg) was the only agent that either significantly reduced immobility
rats
  antidepressant effect after intracerebral administration: rapid antidepressant effects

## CNCCCN1c2ccccc2CCc2ccccc21 [DMI, desmethylimipramine]
Swiss Webster male mice [3]
  immobility, % vehicle control: 64.7±20.7%
  immobility versus vehicle: significantly reduced immobility
Swiss Webster male mice [4]
  immobility versus vehicle: significant reduction in immobility
Swiss Webster male mice [1]; [14]
  immobility, % vehicle control: 94.8±7.1%
Swiss Webster male mice [1]; [15]
  distance swum versus vehicle: failed to affect immobility or distance swum
  immobility versus vehicle: failed to affect immobility or distance swum
Swiss Webster male mice [1]; acute i.p., dp6FNE 1, 3, 10 mg/kg with prazosin 0.2 mg/kg, DMI 10 mg/kg, FIG. 5
  effect in repeated open-space swim test: complete lack of effect
Swiss Webster male mice [1]
  immobility or distance swum versus vehicle, panel of currently available antidepressants: dp6FNE/prazosin (1 mg/kg) was the only agent that either significantly reduced immobility
Swiss Webster male mice [5]; subacute i.p. DMI
  anorexia / sucrose intake after subacute antidepressant: anorexia and markedly reduced sucrose intakes

## Cc1ccc(N(CC2=NCCN2)c2cccc(O)c2)cc1 [Phentolamine, phentolamine]
[6]
  passage of the blood brain barrier / uptake by the brain: not taken up by the brain

## CNC[C@H](O)c1cccc(O)c1 [PE, phenylephrine]
LC α1-adrenoceptors [7]; PE 10 nmoles/side coinjected with terazosin 3 nmoles/side in LC, 5 rats
  reversal of terazosin-induced inactivity (GMs, cage Xs, TI): completely reverse the terazosin-induced inactivity
LC α1-adrenoceptors [8]; PE 0, 0.03, 0.1, 0.3, 1 nmole/side in LC, 30 min
  GMs and cage Xs, dose-response: small dose-dependent increases
LC α1-adrenoceptors [8]; PE 1.0 nmole/side in LC, home cage, 0-15 min
  TI: 0.98 ± 0.98 min
LC α1-adrenoceptors [8]; PE 1.0 nmole/side in LC, home cage, 0-15 min, five rats
  GMS: 195.2 ± 25.3
LC α1-adrenoceptors [8]; Rears as % of GM, PE 1.0 nmole/side in LC, home cage, 0-15 min
  % Rears: 33.5 ± 8.0%
LC α1-adrenoceptors [8]; Xs as % of GM, PE 1.0 nmole/side in LC, home cage, 0-15 min
  % Xs: 12.3 ± 2.0%
rats; 16 mg/kg, i.p.
  anti-immobility effect after systemic administration: only at a near lethal dose
rats
  antidepressant effect after intracerebral administration: produced antidepressant effects in the forced swim test

## CCN(CCCl)Cc1ccccc1Br [DSP4]
LC α1-adrenoceptors [7]; DSP4 10 days before test
  effect of pretreatment on behavioral effects of LC terazosin (novel cage) and PE (home cage): markedly attenuated the behavioral effects
LC α1-adrenoceptors [7]; DSP4 10 days before test, novel or home cages
  effect of pretreatment alone on exploratory activity: had no effect on exploratory activity

## NCC(O)c1cc(O)c(O)cc1F (stereo not drawn) [6FNE, 6-fluoronorepinephrine]
Swiss Webster male mice [3]
  immobility, % vehicle control: 24.7±7.8%
Swiss Webster male mice [3]; 10 mg/kg
  immobility versus vehicle: equally effective; also recorded: significant overall reduction in immobility
Swiss Webster male mice [4]; ivt. 6FNE dose-response, one-way ANOVA
  climbing duration, overall effect: failed to show statistical significance
Swiss Webster male mice [4]
  immobility versus vehicle: differed significantly from vehicle
Swiss Webster male mice [1]; [14]
  distance swum, % vehicle control: 193.4±22.8%
  immobility, % vehicle control: 36.7±9.2%
Swiss Webster male mice [1]; [15]
  distance swum versus vehicle: borderline increase in distance swum
Swiss Webster male mice [1]; 5th swim, acute ivt. 6FNE or DEX, DMI subacute i.p. 10 mg/kg, 10 mg/kg
  immobility versus vehicle: only 6FNE was effective; also recorded: dose-dependently reduced immobility
Swiss Webster male mice [1]; single ivt. infusion 0, 1, 3, 10 nmoles, Example 4, expected
  antidepressant response compared with ivt PE: more rapid or greater antidepressant response than PE
Swiss Webster male mice [9]
  sedation: no sedative effect
Swiss Webster male mice [5]; acute ivt. 6FNE 48 h after LPS 830 μg/kg i.p.
  sucrose preference: rescued by 6FNE
Swiss Webster male mice [5]; acute ivt. 6FNE in LPS-pretreated animals
  sucrose intake: inverted-U-shaped increase
[10]
  neural activity of the LC measured from c-Fos expression: virtually complete cessation of the neural activity
[6]
  passage of the blood brain barrier / uptake by the brain: does not pass the blood brain barrier
[11]; [16]
  Fos expression in LC: significant overall reduction
  Fos expression in PVH: significant overall reduction
[11]; p<0.05
  Fos expression in lateral septal nucleus: overall increase
[11]; p<0.1
  Fos expression in NAC: overall increase
Swiss Webster male mice [12]
  time in the center of the field: restored this behavior back to the level of the non-handled controls; also recorded: complete rescue
  total quadrants entered: no change in activity compared to the non-handled animals; also recorded: completely rescued the activity
Brain α-adrenoceptors
  agonist efficacy: only known selective full agonist

## CNC1(c2ccccc2Cl)CCCCC1=O (stereo not drawn) [ketamine]
Swiss Webster male mice [1]
  immobility or distance swum versus vehicle, panel of currently available antidepressants: dp6FNE/prazosin (1 mg/kg) was the only agent that either significantly reduced immobility

— patent US9023788B2, “Methods compounds and pharmaceutical compositions for treating anxiety and mood disorders” (New York University, priority 2010, dated 2015)
